Laboratory results: patent US11773381B2, “Cell penetrating peptide, conjugate comprising same, and composition comprising conjugate” (GemVax & KAEL CO., LTD., priority 2012, dated 2023)

System: HeLa cell
Assay: Cell penetration of pep(CPP)-FITC conjugates in HeLa cell line, flow cytometry (FACS)
Type: cell-based, Homo sapiens
Settings: HeLa cells, 20 μM of each carrier peptide combined with FITC, 37° C. for an hour, control cells treated only FITC
Method: Homo sapiens cervix adenocarcinoma cell line as HeLa cell lines were purchased from ATCC (American Type Cell Culture). The cells were cultured in MEM supplemented with 10% fetal bovine serum (Invitrogen, USA), Earle's salts, non-essential amino acids, sodium pyruvate and 100 μg/ml penicillin and 10 units/ml streptomycin and cultured at 37° C., 5% CO2 incubator.
Flow cytometry and Confocal microscope analysis were performed to compare the between degree of cellular uptake of the cells were treated with SEQ ID NO: 1 to SEQ ID NO: 156, pep (CPP) and control.
The cell line was divided in a 6-well plate and cultured in a medium containing 10% fetal bovine serum (Invitrogen, USA), […] at 37° C., 5% CO2 incubator for 12 hours. After washing the cell line with PBS, starvation was induced in a Minimum Essential Medium for an hour. 20 μM of each carrier peptide was treated and cultured at 37° C. for an hour. After repeating the step of washing the cells with PBS for three times, Trypsin-EDTA was treated form 10 mins at 37° C. to separate the carrier peptide on the outside of the cell. cells were collected with refrigerated PBS and centrifugation was performed to repeat the step of washing the cells for three times. After then, the cells were suspended in 0.5 ml of PBS containing 4% Paraformaldehyde and fluorescence of the cells was analyzed using FACS Calibur (Becton Dickinson). The cellular uptake aspect of control and various peptides combined with FITC was compared and analyzed by MFI (Mean Fluorescence Intensity).
Analysis results shown in FIG. 1 to FIG. 23 are given in detail in Table 3 below.

Sequence	cellular uptake, MFI (Mean Fluorescence Intensity)
PQDRLTEVIASIIKP (listed as Homo sapiens) [pep47]	15.85 ± 1.03
PYMRQFVAHLQETSPLRDAV (listed as Homo sapiens) [pep146]	18.32 ± 1.82
QETSPLRDAVVIEQSSSLNE (listed as Homo sapiens) [pep89]	13.54 ± 0.75
QMPAHGLFPWCGLLLDTRTL (listed as Homo sapiens) [pep96]	308.53 ± 3.61
RARRPGLL (listed as Homo sapiens) [pep35]	15.54 ± 1.38
RAWNHSVREAGVPLGLPAPG (listed as Homo sapiens) [pep60]	15.79 ± 1.63
RFHACVLQLPFHQQVWKNPT (listed as Homo sapiens) [pep158]	87.75 ± 2.51
RGDPAAFRALVAQCLVCVPW (listed as Homo sapiens) [pep52]	16.67 ± 2.22
RGKSYVQCQGIPQGSILSTL (listed as Homo sapiens) [pep91]	24.41 ± 2.79
RKTVVNFPVEDEALGGTAFV (listed as Homo sapiens) [pep95]	10.92 ± 0.07
RLTSRVKAL (listed as Homo sapiens) [pep7]	9.51 ± 2.95
RLVPPGLWGSRHNERRFLRN (listed as Homo sapiens) [pep131]	32.51 ± 2.38
RPALLTSRL (listed as Homo sapiens) [pep6]	15.81 ± 1.59
RPALLTSRLRFIPKP (listed as Homo sapiens) [pep41]	28.97 ± 3.44
RPGLLGASVL (listed as Homo sapiens) [pep21]	13.22 ± 1.67
RPIVNMDYVVGARTFRREKR (listed as Homo sapiens) [pep139]	29.95 ± 0.28
RPSLTGARRLVETIFLGSRP (listed as Homo sapiens) [pep125]	28.62 ± 2.12
RQHHAGPPSTSRPPRPWDTP (listed as Homo sapiens) [pep65]	12.72 ± 1.36
RRPGLLGAS (listed as Homo sapiens) [pep28]	14.08 ± 3.11
RRPGLLGASVLGLDDIHRAW (listed as Homo sapiens) [pep141]	20.89 ± 0.31
RRSPGVGCVPAAEHRLREEI (listed as Homo sapiens) [pep76]	13.98 ± 0.11
RSLLRSHYREVLPLATFVRR (listed as Homo sapiens) [pep108]	22.53 ± 0.95
RTFRREKRAERLTSR (listed as Homo sapiens) [pep43]	29.88 ± 2.35
RTFVLRVRAQDPPPE (listed as Homo sapiens) [pep8]	17.75 ± 1.96
RTRGPSDRGFCVVSPARPAE (listed as Homo sapiens) [pep63]	21.3 ± 1.55
SGPRRRLGCERAWNHSVREA (listed as Homo sapiens) [pep117]	23.11 ± 2.46

Sequence	cellular uptake, MFI (Mean Fluorescence Intensity)
SHVSTLTDLQPYMRQFVAHL (listed as Homo sapiens) [pep88]	16.43 ± 0.55
SLCYSILKAKNAGMSLGAKG (listed as Homo sapiens) [pep102]	45.84 ± 1.58
SLPLPKRPRRGAAPEPERTP (listed as Homo sapiens) [pep119]	13.23 ± 0.64
SRPPRPWDTPCPPVYAETKH (listed as Homo sapiens) [pep123]	18.03 ± 2.83
SVLGLDDIH (listed as Homo sapiens) [pep31]	14.93 ± 2.05
SVLGLDDIHR (listed as Homo sapiens) [pep17]	15.26 ± 2.23
SVLNYERAR (listed as Homo sapiens) [pep24]	13.78 ± 1.07
SVLNYERARR (listed as Homo sapiens) [pep16]	20.12 ± 1.84
SVLNYERARRPGLLG (listed as Homo sapiens) [pep3]	18.23 ± 3.21
SYLPNTVTDALRGSGAWGLL (listed as Homo sapiens) [pep56]	28.61 ± 0.44
THCPLRAAVTPAAGVCAREK (listed as Homo sapiens) [pep128]	14.36 ± 1.21
TKKFISLGKHAKLSLQELTW (listed as Homo sapiens) [pep132]	26.39 ± 0.95
TQLSRKLPGTTLTALEAAAN (listed as Homo sapiens) [pep105]	13.23 ± 2.21
VAQCLVCVPWDARPPPAAPS (listed as Homo sapiens) [pep110]	22.04 ± 0.77
VARVLQRLCERGAKNVLAFG (listed as Homo sapiens) [pep54]	388.45 ± 2.94
VETIFLGSRPWMPGTPRRLP (listed as Homo sapiens) [pep68]	27.28 ± 1.28
VLGLDDIHR (listed as Homo sapiens) [pep23]	15.68 ± 2.03
VLGLDDIHRA (listed as Homo sapiens) [pep13]	14.01 ± 1.32
VLNYERARR (listed as Homo sapiens) [pep25]	18.62 ± 0.69
VLPLATFVRRLGPQGWRLVQ (listed as Homo sapiens) [pep51]	59.81 ± 1.38
VRRYAVVQKAAHGEVRKAFK (VRRYAVVQKAAHGHVRKAFK; listed as Homo sapiens) [pep87]	38.35 ± 2.27
VTETTFQKNRLFFYR (listed as Homo sapiens) [pep37]	20.81 ± 1.02
WMPGTPRRLPRLPQRYWQMR (listed as Homo sapiens) [pep126]	3362.29 ± 3.24
WSKLQSIGIRQHLKRVQLRE (listed as Homo sapiens) [pep79]	31.2 ± 1.52
YERARRPGL (listed as Homo sapiens) [pep11]	10.46 ± 1.99
YERARRPGLL (listed as Homo sapiens) [pep20]	20.73 ± 2.45
